Patent US20240158442A1, “MULTIFUNCTIONAL POLYPEPTIDE AND APPLICATION THEREOF IN FIELD OF MEDICINES” (Wuhan Innerse Pharmaceutical Inc., priority 2021, published 2024)
Square brackets hold non-standard residues; d marks the D form. Ends that are not written are not given here. βAla = NCCC(=O)O

Tests used:
[1] = Dose-effect experiment, body weight of MCAO model animals; settings: 3 mg/kg i.v.; D 2 = 1 day after surgery
Procedure: Measurement time: the body weight was measured at least twice during the accommodation, and each batch of rats were weighed once on the day before the surgery and on the day of dissection to calculate the amount of drug administered and the anesthetic applied; the body weight was measured twice a week after the surgery.
The effect of test substance on the weight of model animals: cerebral ischemia-reperfusion is an acute injury model, wherein the weight of experimental animals will drop dramatically after MCAO modeling. Thus, the weight of experimental animals is one of the most basic sensitive parameters to comprehensively reflect the health status of animals.

[2] = test system: rats with cerebral ischemia (middle cerebral artery occlusion, MCAO); assay: MCAO rat model of cerebral ischemia, TTC staining, cerebral infarct volume (Example 5); type: in vivo, SD rats; settings: for infarct volume (TTC quantification), mean value: 3 mg/kg via tail vein 1-2 h after suturation, TTC after 22-24 h, 6 rats per group; for infarct volume (TTC quantification), rat No. 1: individual animal No. 1; for infarct volume (TTC quantification), rat No. 2: individual animal No. 2; for infarct volume (TTC quantification), rat No. 3: individual animal No. 3; for infarct volume (TTC quantification), rat No. 4: individual animal No. 4; for infarct volume (TTC quantification), rat No. 5: individual animal No. 5; for infarct volume (TTC quantification), rat No. 6: individual animal No. 6
Procedure: (§1) In order to determine the application of the synthetic peptides provided by the present invention in neurological diseases, the present invention uses SD rats as experimental objects, and performs middle cerebral artery occlusion method (MCAO) to prepare rat model of cerebral ischemia. These rats were injected drugs intravenously 1-2 hours after ischemia, and a behavioral observation and scoring was conducted for each animal after 22-24 hours. After the behavioral observation, the experimental rats were euthanized and their brains were removed, cut to sections and stained with TTC for quantitative analysis, and the cerebral infarct volume % was calculated.
• Small-animal monitor: VT200 from Rongxianda Technology Co., Ltd., Shenzhen, China. • SD rats: 180-200 g, from China National Institutes for Food and Drug Identification. • Suture emboli: Maiyue Bio (M8507). • TTC staining solution: Yuanye Bio (R24053).
(§2) The experimental SD rat was weighed and anesthetized with chloral hydrate. After anesthesia, the limbs of the rat were fixed, and the rat was placed in a supine position, connected to the small-animal monitor, and monitored for important physiological parameters such as body temperature, blood pressure and heart rate, etc. The rat's neck was shaved and disinfected with 75% alcohol cotton ball. A middle incision of about 2 cm length was then made on the neck of the experimental rat, and the submandibular gland of the rat was bluntly separated while avoiding damage to the gland. Then, the left common carotid artery (CCA) of the experimental rat was bluntly separated, and the internal carotid artery (ICA) and external carotid artery (ECA) were carefully separated upward along the CCA. Any damage to vagus nerves was avoided during the separation. The CCA and ICA were clamped respectively with two artery clamps, and the distal end of the ECA was cut off and a silicone suture emboli was inserted into the ECA “port” to the ICA artery clamp, then the artery clamp was quickly loosened and the tip of the suture emboli was put in through the artery clamp quickly before clamping the ICA again. This step was repeated and the suture emboli was put in further until the black mark of the suture emboli reached the bifurcation of the ECA and ICA, and the tip of the suture emboli blocked the middle cerebral artery and then the ECA “port” and the suture emboli was tied tightly using a thread in order to prevent the “escape” of suture emboli or bleeding after the rat waked up. The artery clamps on the CCA and ICA were then loosed and removed to restore the tissue to its original position, and an appropriate amount of penicillin was applied to prevent wound infection. A medical suture needle with thread was used to suture, and the wound was disinfected using povidone-iodine again after the suturation. The experimental rats were monitored with the small-animal monitor to evaluate if their physiological parameters were normal, and the rats were placed on a small-animal electric blanket to keep their body temperature until they waked up, and placed in animal cages.
(§3) The drug to be tested was prepared as 3 mg/mL solution. The drug was dosed via tail vein 1-2 h after the suturation.
(§4) During the drug administration, the rat was fastened with a fastening device, and the drug to be tested was injected into the tail vein of the rat at 3 mg/kg using 1 mL syringe, the drug was injected slowly to reduce the cardiopulmonary load of the experimental rat.
(§5) The animals were divided into different test groups, with 6 rats for each group. Model group: After the suturation, an equal amount of normal saline was given via tail vein; Drug groups S1 (NA1), S4 (β-Ala-His-Lys-Ala-Pro) and S5 (Pro-Ala-Lys-β-Ala-His): administered via tail vein after the suturation;
After the behavioral observation, experimental rats were euthanized and their brains were removed. […]

[3] = test system: rats with cerebral ischemia (middle cerebral artery occlusion, MCAO); assay: MCAO rat model of cerebral ischemia, behavioral observation and scoring (Example 5); type: in vivo, SD rats; settings: 3 mg/kg via tail vein; for behavioral score, rat No. 1: individual animal No. 1; for behavioral score, rat No. 2: individual animal No. 2; for behavioral score, rat No. 3: individual animal No. 3; for behavioral score, rat No. 4: individual animal No. 4; for behavioral score, rat No. 5: individual animal No. 5; for behavioral score, rat No. 6: individual animal No. 6; for behavioral score, mean value: scored 22-24 h after suturation, scale 0-5, 6 rats per group
Procedure: as §1, §2, §3, §4, §5
The behavioral observation and scoring were performed on each animal 22-24h after the suturation.

[4] = test system: rat cerebral ischemic stroke (MCAO, reperfusion 120 min after ischemia); assay: Dose-effect experiment, suture-embolized MCAO ischemia-reperfusion model, TTC staining, cerebral infarction size (Example 6); type: in vivo, Sprague-Dawley (SD) rats; settings: for Infarct size (infarct tissue weight as percentage of whole brain weight): model control 24.84 ± 3.39
From the text: Preparation method: an amount of test substance was weighted and fully dissolved using water for injection to the required concentration, and was filtered with a 0.22 μm filter to sterilize.
Animal strain: Sprague-Dawley (SD) rats; grade: SPF grade. Body weight: 200.01-240.03 g when the accommodation started, 213.79-278.79 g when grouping. Age: about 5-7 weeks old during the accommodation, and 6-8 weeks old when grouping. Source: SPF (Beijing) Biotechnology Co., Ltd., Beijing, China.
A. Isolating and exposing blood vessels: the skin of the surgical area was shaved, and the rat was placed under a surgical microscope. The skin of the rat was cut along the midline with ophthalmic scissors, with a cut of about 2 cm length. Through the right neck of the rat, the muscle tissue of the right neck was bluntly isolated and opened with a microforcep to expose the right common carotid artery (CCA), and then isolated upward along the common carotid artery to further expose the external carotid artery (ECA) and internal carotid artery (ICA);
B. The ECA was ligated and the ICA was temporarily clamped; the proximal end and distal end of CCA were threaded separately, the distal end was tied tightly and the proximal end was tied with a loose knot, and a small incision was made between the two threads;
Inserting the suture emboli: A No. 4-0 suture emboli was inserted through the incision of CCA, pushed slowly and gently into the internal carotid artery, and stopped at the artery clamp of ICA, the pre-set thread was tied tightly (to avoid severe bleeding when pushing the suture emboli), then the artery clamp that blocked the blood flow of ICA was removed, and the suture emboli was immediately pushed into ICA until entering into the cranium. […]
D. Fixing the suture emboli and suturing the incision: if one felt slight resistance when the suture emboli was inserted about 18 mm depth from the bifurcation of the common carotid artery, it means that the tip of the suture emboli has entered into the cerebral anterior artery (ACA), and the side wall of the suture emboli has blocked the opening of the middle cerebral artery; at the moment, the insertion was terminated and the time was recorded. […]

[5] = test system: rat cerebral ischemic stroke (MCAO, reperfusion 120 min after ischemia); assay: Dose-effect experiment, MCAO ischemia-reperfusion model, rat neurological function score (NSS); type: in vivo, Sprague-Dawley (SD) rats; settings: 3 mg/kg i.v., D 2 = 1 day after surgery, model control 8.62 ± 0.84
Procedure: The establishment of rat model: the rats were placed in an anesthesia induction box filled with 3.0% isoflurane for anesthesia induction. Anesthesia-induced animals were transferred to the operating table, and anesthesia was maintained with 2.0%˜2.5% isoflurane at 200 mL/min using a small-animal gas anesthesia machine, and the eyelid reflex and pain response of the rats were observed. The surgery can be started only after the eyelid reflex response and the pain response on limbs and tail disappeared. […]
• Measurement time: 24 hours before and after modeling; • Animals measured: all the surviving experimental animals planned to be measured; • Measurement method: a motor function test, sensory test, balance test, and reflex and abnormal behavior test were performed on animals, according to the rat neurological function score scale (NSS) for details.
The main purpose of clinical treatment for cerebral infarction is to restore the patient's neurological function as much as possible and to improve the quality of life after stroke. In this experiment, the animals were evaluated with Bederson scoring 1 hour after ischemia to evaluate the ischemia in animals. One day after modeling, the neurobehavioral function of animals was evaluated with NSS scoring scale in order to evaluate the effect of test substance in improving the neurological function of animals.

[6] = test system: patients with acute ischemic stroke (AIS) undergoing endovascular thrombectomy; settings: intravenous injection 2.6 mg/kg; cited from earlier work
[7] = test system: experimental cerebral ischemia-reperfusion in animals (cynomolgus monkeys); settings: preclinical ischemic stroke model; cited from earlier work
[8] = 3 mg/kg i.v. once within 10 min after reperfusion, TTC 24 h after treatment
[9] = listed as β-Ala-His-Lys-Ala-Pro

| Substance | infarct volume (TTC quantification), mean value [2] | infarct volume (TTC quantification), rat No. 1 ([2]; 3 mg/kg via tail vein) | infarct volume (TTC quantification), rat No. 2 ([2]; 3 mg/kg via tail vein) | infarct volume (TTC quantification), rat No. 3 ([2]; 3 mg/kg via tail vein) | infarct volume (TTC quantification), rat No. 4 ([2]; 3 mg/kg via tail vein) | infarct volume (TTC quantification), rat No. 5 ([2]; 3 mg/kg via tail vein) | infarct volume (TTC quantification), rat No. 6 ([2]; 3 mg/kg via tail vein) | behavioral score, rat No. 1 [3] | behavioral score, rat No. 2 [3] | behavioral score, rat No. 3 [3] | behavioral score, rat No. 4 [3] | behavioral score, rat No. 5 [3] | behavioral score, rat No. 6 [3] | behavioral score, mean value [3] | also measured |
| --- | --- | --- | --- | --- | --- | --- | --- | --- | --- | --- | --- | --- | --- | --- | --- |
| YGRKKRRQRRRKLSSIESDV [Example S1, nerinetide] | 0.157 | 0.187 | 0.218 | 0.153 | 0.145 | 0.107 | 0.134 | 2 points | 2 points | 2 points | 2 points | 1 points | 3 points | 2.0 points | Weight D 2 [1]: 203.7 ± 10.94 g; infarct volume (TTC quantification), mean value ([2]; listed as NA1): 0.157±0.040; behavioral score, mean value ([3]; listed as NA1): 2.0±0.6 points; Infarct weight [4, 8]: 0.24 ± 0.02 g; Infarct size (infarct tissue weight as percentage of whole brain weight) [4, 8]: 16.74±3.14%; Infarct size (infarct tissue weight as percentage of whole brain weight) ([4]; 3 mg/kg i.v. once within 10 min after reperfusion, TTC 24 h after treatment, listed as Positive drug): 16.74 ± 3.14 %; Inhibition rate of cerebral infarction ([4]; 3 mg/kg i.v., calculated from infarct size versus model control group): 33%; NSS score D 2 ([5]; listed as Positive drug): 8.00 ± 0.76; NSS score D 2 ([5]; listed as positive control): 8.00±0.76; patient's prognosis [6]: improved patient's prognosis; functional prognosis [7]: improve the functional prognosis; infarct size of experimental cerebral ischemia-reperfusion [7]: reduce the infarct size |
| β-Ala-His-Lys-Ala-Pro ([βAla]HKAP) [Example S4] | 0.155 | 0.233 | 0.157 | 0.137 | 0.171 | 0.118 | 0.116 | 3 points | 2 points | 3 points | 2 points | 1 points | 1 points | 2.0 points | infarct volume (TTC quantification), mean value [2, 9]: 0.155±0.044; infarct volume, statistical comparison with S1 ([2]; 3 mg/kg via tail vein, compared with S1 (NA1) 3 mg/kg): not statistically different from S1; behavioral score, statistical comparison with S1 ([3]; compared with S1 (NA1) 3 mg/kg): not statistically different from S1; behavioral score, mean value [3, 9]: 2.0±0.9 points |
